Reference: the supplement of paper PMC11451515

How the values were obtained:
Settings in all cases: 48 h
SEM cells [1] = assay: AUC of viability dose-response curve (% viability x log10 dose units); higher = less sensitive
Procedure, shortened: (§1)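 Medium-adapted leukemia cells in 1536-well plates, at 500 or 1000 cells/well, were incubated for 48 h at 37°C with library compounds in DMSO at 11 threefold doses from 47 μM to 0.79 nM. CellTiter-Glo One luminescence normalised per plate to DMSO and cell-free wells was fitted with a four-parameter log-logistic model over log10 doses. Area under the curve was integrated from this fit by trapezoidal rule, with curves beyond full viability scaled and failed quality-control curves removed.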

NOMO1 [2] = assay: as above
Procedure, shortened: as §1

P12-Ichikawa [3] = assay: as above
Procedure, shortened: as §1

NOMO1 [4] = assay: cell viability relative to DMSO control; higher = less cytotoxic
Procedure, shortened: (§2)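 Before seeding, each leukemia line was adapted for at least four passages in each medium. NOMO1 or SEM cells (500 cells/well) and P12-Ichikawa cells (1000 cells/well) went into 1536-well plates at 5 μl, then received library compounds in DMSO by pin dosing across 11 threefold concentrations, 47 μM to 0.79 nM. Readout was CellTiter-Glo One luminescence after 48 h at 37°C, and viability is given as a per-plate percentage of DMSO wells, with cell-free wells as background.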

P12-Ichikawa [5] = assay: as above
Procedure, shortened: as §2

SEM cells [6] = assay: as above
Procedure, shortened: as §2

CC[C@@H](C(N)=O)N1CCCC1=O
AUC of viability dose-response curve
Settings | NOMO1 [2] | P12-Ichikawa [3] | SEM cells [1]
HPLM + 10% dialyzed FBS | 442 | 458 | 450
RPMI 5 mM glucose + 10% FBS | 466 | 460 | 420
RPMI 5 mM glucose + 10% dialyzed FBS | 456 | 467 | 443

Cc1ccc(NC(=O)c2cccc(N(C)C)c2)cc1NC(=O)c1ccc(O)cc1
cell viability [%]
Settings | HPLM + 10% dialyzed FBS | RPMI 5 mM glucose + 10% FBS | RPMI 5 mM glucose + 10% dialyzed FBS
NOMO1 [4], 0.000781 µM | 127 | 114 | 110
NOMO1 [4], 0.00234 µM | 119 | 110 | 114
NOMO1 [4], 0.00702 µM | 115 | 107 | 115
NOMO1 [4], 0.0211 µM | 121 | 108 | 121
NOMO1 [4], 0.0632 µM | 151 | 113 | 116
NOMO1 [4], 0.19 µM | 136 | 109 | 110
NOMO1 [4], 0.569 µM | 146 | 121 | 116
NOMO1 [4], 1.71 µM | 122 | 118 | 126
NOMO1 [4], 5.12 µM | 120 | 118 | 138
NOMO1 [4], 15.4 µM | 136 | 121 | 108
NOMO1 [4], 46.1 µM | 105 | 106 | 107
P12-Ichikawa [5], 0.000781 µM | 120 | 114 | –
P12-Ichikawa [5], 0.00234 µM | 120 | 122 | –
P12-Ichikawa [5], 0.00702 µM | 118 | 120 | –
P12-Ichikawa [5], 0.0211 µM | 116 | 127 | –
P12-Ichikawa [5], 0.0632 µM | 111 | 113 | –
P12-Ichikawa [5], 0.19 µM | 116 | 111 | –
P12-Ichikawa [5], 0.569 µM | 119 | 119 | –
P12-Ichikawa [5], 1.71 µM | 108 | 113 | –
P12-Ichikawa [5], 5.12 µM | 108 | 113 | –
P12-Ichikawa [5], 15.4 µM | 108 | 102 | –
P12-Ichikawa [5], 46.1 µM | 96.7 | 95.2 | –

AUC of viability dose-response curve
Settings | NOMO1 [2] | P12-Ichikawa [3] | SEM cells [1]
HPLM + 10% dialyzed FBS | 472 | 456 | 457
RPMI 5 mM glucose + 10% FBS | 464 | 461 | 474
RPMI 5 mM glucose + 10% dialyzed FBS | 470 | 446 | 450

CCOC(=O)C(C)(C)Oc1ccc(Cl)cc1
AUC of viability dose-response curve
Settings | NOMO1 [2] | P12-Ichikawa [3] | SEM cells [1]
HPLM + 10% dialyzed FBS | 464 | 459 | 465
RPMI 5 mM glucose + 10% FBS | 453 | 464 | 471
RPMI 5 mM glucose + 10% dialyzed FBS | 453 | 461 | 476

Nc1nc2ccc(OC(F)(F)F)cc2s1
cell viability [%], SEM cells [6]
Settings | HPLM + 10% dialyzed FBS | RPMI 5 mM glucose + 10% dialyzed FBS
0.000781 µM | 137 | 127
0.00234 µM | 119 | 123
0.00702 µM | 120 | 125
0.0211 µM | 133 | 131
0.0632 µM | 134 | 119
0.19 µM | 127 | 129
0.569 µM | 131 | 147
1.71 µM | 131 | 123
5.12 µM | 130 | 130
15.4 µM | 114 | 118
46.1 µM | 78.3 | 64

AUC of viability dose-response curve
Settings | NOMO1 [2] | P12-Ichikawa [3] | SEM cells [1]
HPLM + 10% dialyzed FBS | 453 | 462 | 462
RPMI 5 mM glucose + 10% FBS | 455 | 461 | 461
RPMI 5 mM glucose + 10% dialyzed FBS | 455 | 466 | 461

CNC(=O)c1cc(Oc2ccc(NC(=O)Nc3ccc(Cl)c(C(F)(F)F)c3)cc2)ccn1
cell viability [%], SEM cells [6]
Settings | RPMI 5 mM glucose + 10% FBS | RPMI 5 mM glucose + 10% dialyzed FBS
0.000781 µM | 108 | 109
0.00234 µM | 112 | 108
0.00702 µM | 89.1 | 98.8
0.0211 µM | 89.8 | 79.3
0.0632 µM | 70.8 | 64.7
0.19 µM | 57.1 | 57.8
0.569 µM | 54 | 59.7
1.71 µM | 75.3 | 63.8
5.12 µM | 63.9 | 72.1
15.4 µM | 63 | 68.9
46.1 µM | 5.7 | 11.6

AUC of viability dose-response curve
Settings | NOMO1 [2] | P12-Ichikawa [3] | SEM cells [1]
HPLM + 10% dialyzed FBS | 445 | 457 | 278
RPMI 5 mM glucose + 10% FBS | 448 | 448 | 313
RPMI 5 mM glucose + 10% dialyzed FBS | 432 | 448 | 317

CNC1CCCN(c2c(F)cc3c(=O)c(C(=O)O)cn(C4CC4)c3c2OC)C1 (stereo unspecified)
SEM cells [6], HPLM + 10% dialyzed FBS
Settings | cell viability [%]
0.000781 µM | 120
0.00234 µM | 123
0.00702 µM | 131
0.0211 µM | 139
0.0632 µM | 134
0.19 µM | 125
0.569 µM | 133
1.71 µM | 122
5.12 µM | 115
15.4 µM | 117
46.1 µM | 113

AUC of viability dose-response curve
Settings | HPLM + 10% dialyzed FBS | RPMI 5 mM glucose + 10% FBS | RPMI 5 mM glucose + 10% dialyzed FBS
P12-Ichikawa [3] | 432 | 441 | 443
SEM cells [1] | 462 | 445 | 456

CC(=O)OCC(=O)[C@@]12OC(C)(C)O[C@@H]1C[C@H]3[C@@H]4C[C@H](F)C/5=C/C(=O)/C=C\[C@]5(C)[C@@]4(F)[C@@H](O)C[C@]23C
cell viability [%]
Settings | NOMO1 [4] | P12-Ichikawa [5] | SEM cells [6]
HPLM + 10% dialyzed FBS, 0.000781 µM | 120 | 107 | 67.2
HPLM + 10% dialyzed FBS, 0.00234 µM | 117 | 119 | 84.1
HPLM + 10% dialyzed FBS, 0.00702 µM | 115 | 111 | 74.8
HPLM + 10% dialyzed FBS, 0.0211 µM | 126 | 117 | 70.2
HPLM + 10% dialyzed FBS, 0.0632 µM | 114 | 110 | 79.9
HPLM + 10% dialyzed FBS, 0.19 µM | 115 | 94.7 | 78.5
HPLM + 10% dialyzed FBS, 0.569 µM | 105 | 76.7 | 21.4
HPLM + 10% dialyzed FBS, 1.71 µM | 115 | 74.5 | 20.6
HPLM + 10% dialyzed FBS, 5.12 µM | 112 | 71.6 | 74.8
HPLM + 10% dialyzed FBS, 15.4 µM | 120 | 74.5 | 89.7
HPLM + 10% dialyzed FBS, 46.1 µM | 122 | 72.4 | 67.8
RPMI 5 mM glucose + 10% FBS, 0.000781 µM | 103 | 106 | 103
RPMI 5 mM glucose + 10% FBS, 0.00234 µM | 107 | 128 | 104
RPMI 5 mM glucose + 10% FBS, 0.00702 µM | 103 | 119 | 85.4
RPMI 5 mM glucose + 10% FBS, 0.0211 µM | 119 | 115 | 94.7
RPMI 5 mM glucose + 10% FBS, 0.0632 µM | 114 | 115 | 106
RPMI 5 mM glucose + 10% FBS, 0.19 µM | 109 | 84.2 | 99.4
RPMI 5 mM glucose + 10% FBS, 0.569 µM | 111 | 68.5 | 24.7
RPMI 5 mM glucose + 10% FBS, 1.71 µM | 113 | 70.8 | 21.1
RPMI 5 mM glucose + 10% FBS, 5.12 µM | 116 | 62.1 | 78.5
RPMI 5 mM glucose + 10% FBS, 15.4 µM | 123 | 64.2 | 78.2
RPMI 5 mM glucose + 10% FBS, 46.1 µM | 128 | 67.5 | 76.3
RPMI 5 mM glucose + 10% dialyzed FBS, 0.000781 µM | 109 | 117 | 92.5
RPMI 5 mM glucose + 10% dialyzed FBS, 0.00234 µM | 108 | 107 | 102
RPMI 5 mM glucose + 10% dialyzed FBS, 0.00702 µM | 104 | 114 | 87.9
RPMI 5 mM glucose + 10% dialyzed FBS, 0.0211 µM | 113 | 107 | 85.2
RPMI 5 mM glucose + 10% dialyzed FBS, 0.0632 µM | 111 | 87.8 | 90
RPMI 5 mM glucose + 10% dialyzed FBS, 0.19 µM | 132 | 84.4 | 68.9
RPMI 5 mM glucose + 10% dialyzed FBS, 0.569 µM | 116 | 62.8 | 15.7
RPMI 5 mM glucose + 10% dialyzed FBS, 1.71 µM | 132 | 57.6 | 10.2
RPMI 5 mM glucose + 10% dialyzed FBS, 5.12 µM | 131 | 55.1 | 106
RPMI 5 mM glucose + 10% dialyzed FBS, 15.4 µM | 121 | 54.7 | 95.4
RPMI 5 mM glucose + 10% dialyzed FBS, 46.1 µM | 144 | 56.9 | 75.4

AUC of viability dose-response curve
Settings | HPLM + 10% dialyzed FBS | RPMI 5 mM glucose + 10% FBS | RPMI 5 mM glucose + 10% dialyzed FBS
NOMO1 [2] | 474 | 440 | 420
P12-Ichikawa [3] | 393 | 370 | 344
